Article PMC7997574, “Lead Optimization of Benzoxazolone Carboxamides as Orally Bioavailable and CNS Penetrant Acid Ceramidase Inhibitors” (Journal of Medicinal Chemistry, 2020)
Converted amounts (≈) assume the structure as drawn.

Tests used:
[1] = Aqueous kinetic solubility assay; format: physicochemical; settings: PBS, pH 7.4
How it was run: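 Kinetic solubility from 10 mM MeCN stock spiked into PBS pH 7.4 at 250 μM target, shaken 1 h at 25 °C, then centrifuged. Dissolved compound in supernatant quantified by UPLC/MS with UV at 215 nm; mean of ≥2 experiments.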

[2] = system: SH-SY5Y cells; test: Sphingolipid levels in SH-SY5Y cells by LC/MS; format: cell-based, human
Method: SH-SY5Y cells were purchased from Sigma Aldrich (Italy) and cultured in Dulbecco’s modified Eagle’s medium (DMEM) containing 10% fetal bovine serum at 37 °C and 5% CO2. Drugs were dissolved in DMSO (10 mM) and diluted in the cell culture medium with reduced serum (1%) for cell treatments.
Lipid extraction and sphingolipid measurements were performed as previously described.[36],[37] Lipids were extracted with a CHCl3/MeOH mixture (2:1, 3 mL) containing internal standards. The organic phase was collected, dried under nitrogen, and dissolved in CHCl3/MeOH (1:3) for LC/MS analyses. Ceramides and sphingosine were analyzed by LC/MS/MS, using a Waters ACQUITY UPLC coupled to a Waters Xevo TQMS and interfaced with an ESI ion source. Separation was performed on a Waters ACQUITY BEH C18 1.7 μm column (2.1 × 50 mm) at 60 °C. A linear gradient of 0.1% formic acid in MeCN/isopropyl alcohol (20:80) as solvent B in 0.1% formic acid in MeCN/H2O (20:80) as solvent A was applied at a flow rate of 0.4 mL min^–1. Detection of sphingolipids was performed in positive-ion mode. Capillary voltage was 3.5 kV, and cone voltage was 25 V. The source temperature and desolvation temperatures were set at 120 and 600 °C, respectively. Desolvation gas and cone gas (N2) flows were 800 and 20 L h^–1, respectively. Ceramides were identified by comparison of their LC retention times and MS/MS fragmentation patterns with those of authentic standards (Avanti Polar Lipids). Multiple Reaction Monitoring (MRM) ion chromatograms were used to quantify myristoyl ceramide (C14:0, m/z: 492.5 > 264.3), palmitoyl ceramide (C16:0, m/z 520.3 > 264.3), stearoyl ceramide (C18:0, m/z: 548.3 > 264.3), lignoceroyl ceramide (C24:0, m/z: 632.3 > 264.3), and nervonoyl ceramide (C24:1 m/z: 630.3 > 264.3) using lauroyl ceramide standard (m/z: 464.5 > 264.3). Detection and analysis were controlled by Waters MassLynx software version 4.1. Sphingosine was identified by comparison of its LC retention times and MS2 fragmentation patterns with those of authentic standards (Avanti Polar Lipids). Extracted ion chromatograms were used to quantify sphingosine standard (d18:1, m/z: 300.5 > 282.5). Detection and analysis were controlled by Waters MassLynx software version 4.1. Calibration curves were prepared for every experiment.

[3] = biological target: T1, human N-acylethanolamine acid amidase (hNAAA) (Homo sapiens, UniProt Q02083); test: Fluorogenic hNAAA assay; format: biochemical
T1 construct: expressed in transfected cells
T1 sequence (Q02083 29-359): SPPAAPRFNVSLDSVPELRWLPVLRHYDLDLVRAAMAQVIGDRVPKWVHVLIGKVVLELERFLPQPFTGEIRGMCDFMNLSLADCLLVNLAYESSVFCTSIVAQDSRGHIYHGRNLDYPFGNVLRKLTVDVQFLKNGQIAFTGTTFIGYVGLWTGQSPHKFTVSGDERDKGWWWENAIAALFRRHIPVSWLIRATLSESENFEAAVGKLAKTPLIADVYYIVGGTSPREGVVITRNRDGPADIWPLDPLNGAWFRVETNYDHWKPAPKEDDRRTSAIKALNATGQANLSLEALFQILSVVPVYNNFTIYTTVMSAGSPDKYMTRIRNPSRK
Method: HEK-293 cells stably transfected with the hNAAA coding sequence cloned from a human spleen cDNA library (catalog no. 639124, Clontech, Mountain View, CA, USA) were used as the enzyme source. Cells were grown in Dulbecco’s modified Eagle medium (DMEM) containing 10% FBS, 1% glutamine, 1 mM sodium pyruvate, and 500 μg mL^–1 G418. Cells were harvested, and pellets were stored at −80 °C until lysosomal-enriched lysate preparation. Cells were suspended in 20 mM Tris HCl (pH 7.4) with 0.32 M sucrose, sonicated, and centrifuged at 800 × g for 30 min at 4 °C. Supernatants were then ultracentrifuged at 12000 × g for 30 min at 4 °C. […] The suspension was finally ultracentrifuged at 105000 × g for 1 h at 4 °C, supernatants were collected, protein concentration was measured, and samples were aliquoted and stored at −80 °C until use.
The assay was run in 96-well microplates (Black OptiPlate-96F; PerkinElmer, Massachusetts, USA) in a total reaction volume of 200 μL. hNAAA protein preparation (4.0 μg) was preincubated for 30 min with various concentrations of test compounds or vehicle control (DMSO 5%) in 100 mM citrate/phosphate buffer (pH 4.5) containing 3.0 mM DTT, 0.1% NP40 0.1%, 0.05% BSA, 150 mM NaCl. […] Fluorescence was measured with an EnVision 2014 Multilabel Reader (PerkinElmer, Massachusetts, USA) using an excitation wavelength of 355 nm and emission of 460 nm. […]

SMILES: CC(C)CNC(=O)n1c(=O)oc2cc(C3CCN(C)CC3)ccc21 [22m, N-Isobutyl-6-(1-methyl-4-piperidyl)-2-oxo-1,3-benzoxazole-3-carboxamide]
- solubility at 1 h [1]: 240 µM (≈ 79.5 µg/mL)
- hexosylceramide (HexCer) (d18:1/16:0) levels [2]: no major variations
- sphingomyelin (SM) (d18:1/16:0) levels [2]: no major variations
- ceramide levels, Cer (d18:0/16:0) and Cer (d18:1/16:0) ([2]; 3 h of incubation): intracellular accumulation of various ceramide species
- sphingosine levels ([2]; 3 h of incubation): decrease in the levels of sphingosine
- IC50 [3]: 8 µM
